Results: patent publication US10815204B2, “Process for the preparation of diphenylpyrazine derivatives” (HONOUR (R&D), priority 2016, dated 2020)

Columns and labels:
Assay type in all cases: physicochemical
[1] = Stability of Selexipag amorphous form on storage, solid form by PXRD
Description: X-ray powder diffraction spectrum was measured on a bruker axs D8 advance X-ray powder diffractometer having a copper-a radiation. Adequate sample was gently flattered on a sample holder and scanned from 2 to 50 degrees two-theta, at 0.02 increment and scan speed of 0.2 Sec/Step. The sample was simply placed on the sample holder. The sample was rotated at 30 rpm at a voltage 40 KV and current 35 mA. In another aspect of the present invention, Selexipag amorphous form is stable at 5±3° C. and 25±2° C./RH (Relative humidity) 60±5%, 40±2° C./RH (Relative humidity) 75±5% and has the following stability data: […]

[2] = Stability of Selexipag amorphous form on storage, Chromatographic Purity (by HPLC)
Description: (§1) In another aspect of the present invention, Selexipag amorphous form is stable at 5±3° C. and 25±2° C./RH (Relative humidity) 60±5%, 40±2° C./RH (Relative humidity) 75±5% and has the following stability data: […]

[3] = Storage stability of Selexipag amorphous form (statement); settings: at 5±3° C. and 25±2° C./RH 60±5%, 40±2° C./RH 75±5%
Description: as §1

[4] = 25 ± 2° C./RH 60 ± 5%, 1st month
[5] = 25 ± 2° C./RH 60 ± 5%, 2nd Month
[6] = 25 ± 2° C./RH 60 ± 5%, 3rd Month
[7] = 25 ± 2° C./RH 60 ± 5%, 4th Month
[8] = 25 ± 2° C./RH 60 ± 5%, 5th Month
[9] = 40 ± 2° C./RH 75 ± 5%, 1st month
[10] = 40 ± 2° C./RH 75 ± 5%, 2nd Month
[11] = 40 ± 2° C./RH 75 ± 5%, 3rd Month

CC(C)N(CCCCOCC(=O)NS(C)(=O)=O)c1cnc(-c2ccccc2)c(-c2ccccc2)n1 [Selexipag amorphous form, 2-{4-[(5,6-diphenylpyrazin-2-yl)(isopropyl)amino]butoxy}-N-(methylsulfonyl)acetamide]
PXRD ([1]; 5 ± 3° C., 1st month): Amorphous | PXRD ([1]; 5 ± 3° C., 2nd Month): Amorphous | PXRD ([1]; 5 ± 3° C., 3rd Month): Amorphous | PXRD ([1]; 5 ± 3° C., 4th Month): Amorphous | PXRD ([1]; 5 ± 3° C., 5th Month): Amorphous | PXRD ([1]; 5 ± 3° C., 6th Month): Amorphous | PXRD ([1]; 5 ± 3° C., Initial): Amorphous | PXRD [1, 4]: Amorphous | PXRD [1, 5]: Amorphous | PXRD [1, 6]: Amorphous | PXRD [1, 7]: Amorphous | PXRD [1, 8]: Amorphous | PXRD ([1]; 25 ± 2° C./RH 60 ± 5%, Initial): Amorphous | PXRD [1, 9]: Amorphous | PXRD [1, 10]: Amorphous | PXRD [1, 11]: Amorphous | PXRD ([1]; 40 ± 2° C./RH 75 ± 5%, Initial): Amorphous | Chromatographic Purity (by HPLC) ([2]; 5 ± 3° C., 1st month): 99.63 | Chromatographic Purity (by HPLC) ([2]; 5 ± 3° C., 2nd Month): 99.66 | Chromatographic Purity (by HPLC) ([2]; 5 ± 3° C., 3rd Month): 99.76 | Chromatographic Purity (by HPLC) ([2]; 5 ± 3° C., 4th Month): 99.76 | Chromatographic Purity (by HPLC) ([2]; 5 ± 3° C., 5th Month): 99.70 | Chromatographic Purity (by HPLC) ([2]; 5 ± 3° C., 6th Month): 99.76 | Chromatographic Purity (by HPLC) ([2]; 5 ± 3° C., Initial): 99.63 | Chromatographic Purity (by HPLC) [2, 4]: 99.63 | Chromatographic Purity (by HPLC) [2, 5]: 99.59 | Chromatographic Purity (by HPLC) [2, 6]: 99.72 | Chromatographic Purity (by HPLC) [2, 7]: 99.78 | Chromatographic Purity (by HPLC) [2, 8]: 99.69 | Chromatographic Purity (by HPLC) ([2]; 25 ± 2° C./RH 60 ± 5%, 6th Month): 99.68 | Chromatographic Purity (by HPLC) ([2]; 25 ± 2° C./RH 60 ± 5%, Initial): 99.63 | Chromatographic Purity (by HPLC) [2, 9]: 99.62 | Chromatographic Purity (by HPLC) [2, 10]: 99.58 | Chromatographic Purity (by HPLC) [2, 11]: 99.66 | Chromatographic Purity (by HPLC) ([2]; 40 ± 2° C./RH 75 ± 5%, 4th Month): 99.69 | Chromatographic Purity (by HPLC) ([2]; 40 ± 2° C./RH 75 ± 5%, 5th Month): 99.66 | Chromatographic Purity (by HPLC) ([2]; 40 ± 2° C./RH 75 ± 5%, 6th Month): 99.65 | Chromatographic Purity (by HPLC) ([2]; 40 ± 2° C./RH 75 ± 5%, Initial): 99.63 | stability on storage [3]: stable
